The values below come from ChEMBL document CHEMBL1697781, “Assessment of the health effects of chemicals in humans: II. Construction of an adverse effects database for QSAR modeling” (Curr Drug Discov Technol, 2004).

SMILES strings stand for the structures. A value given as a limit tells only on which side of the number the result lay.

What all share (conditions): human
For data set [1], the system named is Hepatotoxicity. Kind of data set: FDA HLAED, alkaline phosphatase increase.
For data set [2], the system named is Hepatotoxicity. Description: FDA HLAED, serum glutamic pyruvic transaminase (SGPT) increase.
In data set [3] the test system is Hepatotoxicity. Kind of data set: FDA HLAED, serum glutamic oxaloacetic transaminase (SGOT) increase.
Data set [4] has as its system Hepatotoxicity. Description: FDA HLAED, liver enzyme composite activity.
For data set [5], the system named is Hepatotoxicity. Description: FDA HLAED, lactate dehydrogenase (LDH) increase.
Data set [6] concerns Hepatotoxicity. Description: FDA HLAED, gamma-glutamyl transferase (GGT) increase.
Throughout, for GGT Increase - Index Value: reference of the scale not given here.
Throughout, for LDH Increase - Index Value: reference of the scale not given here.

In the case of `O=C1CN(/N=C/c2ccc([N+](=O)[O-])o2)C(=O)N1` [NITROFURANTOIN], in the data set with Hepatotoxicity [1], the “Alkaline Phosphatase Increase - Activity Score” value is “Active”, the “Alkaline Phosphatase Increase - Index Value” was 32.8 and the “Alkaline Phosphatase Increase - Number of Reports” value is “>= 4”. Also, in the data set with Hepatotoxicity [2], the “SGPT Increase - Activity Score” value is “Active”, the “SGPT Increase - Index Value” is 27.4 and the “SGPT Increase - Number of Reports” value is listed as “>= 4”. For the same compound, in the data set on Hepatotoxicity [3], the “SGOT Increase - Activity Score” value is reported as “Active”, the “SGOT Increase - Index Value” is given as 52 and the “SGOT Increase - Number of Reports” value is reported as “>= 4”. In the data set on Hepatotoxicity [4] (Liver), the “Composite Activity - Active” value was found to be 5, the “Composite Activity - Marginal” value is reported as 0 and the “Composite Activity - Score” value was “Active”. Moreover, in the data set on Hepatotoxicity [5], the “LDH Increase - Activity Score” value is reported as “Active”, the “LDH Increase - Index Value” was 35.6 and the “LDH Increase - Number of Reports” value was “>= 4”. In the data set with Hepatotoxicity [6], the “GGT Increase - Activity Score” value is listed as “Active”, the “GGT Increase - Index Value” is on record as 16.4 and the “GGT Increase - Number of Reports” value is recorded as “>= 4”.
With `CC(C)OC(=O)CCC/C=C\C[C@@H]1[C@@H](CC[C@@H](O)CCc2ccccc2)[C@H](O)C[C@@H]1O` [LATANOPROST], in the data set on Hepatotoxicity [1], the “Alkaline Phosphatase Increase - Activity Score” value is “Inactive”, the “Alkaline Phosphatase Increase - Index Value” was determined as 0.2 and the “Alkaline Phosphatase Increase - Number of Reports” value is recorded as below 4. Moreover, in the data set with Hepatotoxicity [2], the “SGPT Increase - Activity Score” value is listed as “Inactive”, the “SGPT Increase - Index Value” is 0 and the “SGPT Increase - Number of Reports” value was below 4. Moreover, in the data set on Hepatotoxicity [3], the “SGOT Increase - Activity Score” value was “Inactive”, the “SGOT Increase - Index Value” came to 0.2 and the “SGOT Increase - Number of Reports” value was below 4. Moreover, in the data set with Hepatotoxicity [4], the “Composite Activity - Active” value amounted to 0, the “Composite Activity - Marginal” value was 0 and the “Composite Activity - Score” value is recorded as “Inactive”. For the same compound, in the data set on Hepatotoxicity [5], the “LDH Increase - Activity Score” value was “Inactive”, the “LDH Increase - Index Value” came out at 0 and the “LDH Increase - Number of Reports” value is listed as below 4. In the data set on Hepatotoxicity [6], the “GGT Increase - Activity Score” value is listed as “Inactive”, the “GGT Increase - Index Value” came to 0 and the “GGT Increase - Number of Reports” value is on record as below 4.
On to `CC[C@@]1(O)C(=O)OCc2c1cc1n(c2=O)Cc2cc3c(CN(C)C)c(O)ccc3nc2-1` [TOPOTECAN], for which, in the data set on Hepatotoxicity [1], the “Alkaline Phosphatase Increase - Activity Score” value is recorded as “Inactive”, the “Alkaline Phosphatase Increase - Index Value” was found to be 0 and the “Alkaline Phosphatase Increase - Number of Reports” value is given as below 4. Besides, in the data set on Hepatotoxicity [2], the “SGPT Increase - Activity Score” value is “Inactive”, the “SGPT Increase - Index Value” came out at 0 and the “SGPT Increase - Number of Reports” value is below 4. In the data set on Hepatotoxicity [3], the “SGOT Increase - Activity Score” value was “Inactive”, the “SGOT Increase - Index Value” is 0 and the “SGOT Increase - Number of Reports” value is listed as below 4. In the data set with Hepatotoxicity [4], the “Composite Activity - Active” value came to 0, the “Composite Activity - Marginal” value is recorded as 0 and the “Composite Activity - Score” value is “Inactive”. Besides, in the data set on Hepatotoxicity [5], the “LDH Increase - Activity Score” value is “Inactive”, the “LDH Increase - Index Value” is on record as 11.6 and the “LDH Increase - Number of Reports” value was below 4. In the data set on Hepatotoxicity [6], the “GGT Increase - Activity Score” value was “Inactive”, the “GGT Increase - Index Value” is reported as 11.6 and the “GGT Increase - Number of Reports” value was below 4.
Take `CCOC(=O)C1=C(COCCN)NC(C)=C(C(=O)OC)C1c1ccccc1Cl` (stereo not drawn) [AMLODIPINE]: in the data set with Hepatotoxicity [1], the “Alkaline Phosphatase Increase - Activity Score” value was “Inactive”, the “Alkaline Phosphatase Increase - Index Value” is given as 1 and the “Alkaline Phosphatase Increase - Number of Reports” value is “>= 4”. Also, in the data set on Hepatotoxicity [2], the “SGPT Increase - Activity Score” value is given as “Inactive”, the “SGPT Increase - Index Value” turned out to be 1.2 and the “SGPT Increase - Number of Reports” value is reported as “>= 4”. For the same compound, in the data set with Hepatotoxicity [3], the “SGOT Increase - Activity Score” value is given as “Inactive”, the “SGOT Increase - Index Value” came to 1.3 and the “SGOT Increase - Number of Reports” value was “>= 4”. For the same compound, in the data set on Hepatotoxicity [4], the “Composite Activity - Active” value came out at 0, the “Composite Activity - Marginal” value worked out at 0 and the “Composite Activity - Score” value is “Inactive”. Also, in the data set with Hepatotoxicity [5], the “LDH Increase - Activity Score” value is “Inactive”, the “LDH Increase - Index Value” amounted to 0.7 and the “LDH Increase - Number of Reports” value was “>= 4”. In addition, in the data set on Hepatotoxicity [6], the “GGT Increase - Activity Score” value is recorded as “Inactive”, the “GGT Increase - Index Value” worked out at 0.8 and the “GGT Increase - Number of Reports” value is given as “>= 4”.
Consider `CC(=O)N1CCN(c2ccc(OCC3COC(Cn4ccnc4)(c4ccc(Cl)cc4Cl)O3)cc2)CC1` (stereo not drawn) [KETOCONAZOLE], for which, in the data set on Hepatotoxicity [1], the “Alkaline Phosphatase Increase - Activity Score” value was “Active”, the “Alkaline Phosphatase Increase - Index Value” was 5.4 and the “Alkaline Phosphatase Increase - Number of Reports” value is “>= 4”. In the data set on Hepatotoxicity [2], the “SGPT Increase - Activity Score” value is given as “Active”, the “SGPT Increase - Index Value” amounted to 10.7 and the “SGPT Increase - Number of Reports” value was “>= 4”. Also, in the data set with Hepatotoxicity [3], the “SGOT Increase - Activity Score” value was “Active”, the “SGOT Increase - Index Value” was 14.7 and the “SGOT Increase - Number of Reports” value was “>= 4”. Besides, in the data set on Hepatotoxicity [4], the “Composite Activity - Active” value is listed as 3, the “Composite Activity - Marginal” value was 0 and the “Composite Activity - Score” value is “Active”. Besides, in the data set with Hepatotoxicity [5], the “LDH Increase - Activity Score” value was “Inactive”, the “LDH Increase - Index Value” is 2.7 and the “LDH Increase - Number of Reports” value was below 4. Besides, in the data set on Hepatotoxicity [6], the “GGT Increase - Activity Score” value was “Inactive”, the “GGT Increase - Index Value” is recorded as 0 and the “GGT Increase - Number of Reports” value is recorded as below 4.
In the case of `C[C@]12CC[C@H]3[C@@H](CCC4=CC(=O)CC[C@@]43C)[C@@H]1CC[C@@H]2OC(=O)Cc1ccccc1` [TESTOSTERONE PHENYLACETATE], in the data set with Hepatotoxicity [1], the “Alkaline Phosphatase Increase - Activity Score” value is “Inactive”, the “Alkaline Phosphatase Increase - Index Value” is recorded as 0 and the “Alkaline Phosphatase Increase - Number of Reports” value is below 4. Also, in the data set with Hepatotoxicity [2], the “SGPT Increase - Activity Score” value was “Inactive”, the “SGPT Increase - Index Value” was determined as 7.2 and the “SGPT Increase - Number of Reports” value is on record as below 4. For the same compound, in the data set on Hepatotoxicity [3], the “SGOT Increase - Activity Score” value is recorded as “Inactive”, the “SGOT Increase - Index Value” was found to be 4.8 and the “SGOT Increase - Number of Reports” value is on record as below 4. Further, in the data set with Hepatotoxicity [4], the “Composite Activity - Active” value came out at 0, the “Composite Activity - Marginal” value is listed as 0 and the “Composite Activity - Score” value is given as “Inactive”. In the data set with Hepatotoxicity [5], the “LDH Increase - Activity Score” value is “Inactive”, the “LDH Increase - Index Value” was found to be 2.4 and the “LDH Increase - Number of Reports” value was below 4. Also, in the data set on Hepatotoxicity [6], the “GGT Increase - Activity Score” value is on record as “Inactive”, the “GGT Increase - Index Value” came to 4.8 and the “GGT Increase - Number of Reports” value is given as below 4.
